Results reported in ChEMBL document CHEMBL4706517, “Discovery of novel berberine derivatives with balanced cholinesterase and prolyl oligopeptidase inhibition profile” (Eur J Med Chem, 2020).
The source made the active and inactive calls. The calls are words filed in the database; no cut-off is given here.

What was measured:
Acetylcholinesterase [1] = target: T1, Acetylcholinesterase (Homo sapiens, UniProt P22303); experiment: Inhibition of recombinant human acetylcholinesterase using acetylthiocholine iodide as substrate preincubated with enzyme for 5 mins followed by substrate addition and measured at 2 mins interval by Ellman's method
T1 sequence (P22303 whole entry): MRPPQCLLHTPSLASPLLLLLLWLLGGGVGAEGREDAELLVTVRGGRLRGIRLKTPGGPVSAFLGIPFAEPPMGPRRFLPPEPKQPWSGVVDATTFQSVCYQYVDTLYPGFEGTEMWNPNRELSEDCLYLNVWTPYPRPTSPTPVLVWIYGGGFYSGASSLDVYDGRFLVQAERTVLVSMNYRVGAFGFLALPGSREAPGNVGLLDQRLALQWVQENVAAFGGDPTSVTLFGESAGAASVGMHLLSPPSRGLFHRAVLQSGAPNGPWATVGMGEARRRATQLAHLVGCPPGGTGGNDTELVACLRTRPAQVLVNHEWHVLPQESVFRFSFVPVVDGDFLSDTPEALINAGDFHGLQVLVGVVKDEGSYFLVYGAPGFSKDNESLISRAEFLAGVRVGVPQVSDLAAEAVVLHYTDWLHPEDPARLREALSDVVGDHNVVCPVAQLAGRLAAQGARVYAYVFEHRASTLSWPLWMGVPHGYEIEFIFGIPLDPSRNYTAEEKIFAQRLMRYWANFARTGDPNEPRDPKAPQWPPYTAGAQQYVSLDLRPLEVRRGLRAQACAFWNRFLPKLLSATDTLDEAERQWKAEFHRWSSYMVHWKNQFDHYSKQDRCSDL

CHO-K1 = experiment: Cytotoxicity against CHO-K1 cells assessed as reduction in cell viability measured after 24 hrs by MTT assay; type: cell-based, Cricetulus griseus
[2] = Antioxidant activity assessed as radical scavenging activity measured after 30 mins by microplate reader based DPPH assay; type: functional
Prolyl endopeptidase = target: T2, Prolyl endopeptidase (Homo sapiens, UniProt P48147)
T2 sequence (P48147 whole entry): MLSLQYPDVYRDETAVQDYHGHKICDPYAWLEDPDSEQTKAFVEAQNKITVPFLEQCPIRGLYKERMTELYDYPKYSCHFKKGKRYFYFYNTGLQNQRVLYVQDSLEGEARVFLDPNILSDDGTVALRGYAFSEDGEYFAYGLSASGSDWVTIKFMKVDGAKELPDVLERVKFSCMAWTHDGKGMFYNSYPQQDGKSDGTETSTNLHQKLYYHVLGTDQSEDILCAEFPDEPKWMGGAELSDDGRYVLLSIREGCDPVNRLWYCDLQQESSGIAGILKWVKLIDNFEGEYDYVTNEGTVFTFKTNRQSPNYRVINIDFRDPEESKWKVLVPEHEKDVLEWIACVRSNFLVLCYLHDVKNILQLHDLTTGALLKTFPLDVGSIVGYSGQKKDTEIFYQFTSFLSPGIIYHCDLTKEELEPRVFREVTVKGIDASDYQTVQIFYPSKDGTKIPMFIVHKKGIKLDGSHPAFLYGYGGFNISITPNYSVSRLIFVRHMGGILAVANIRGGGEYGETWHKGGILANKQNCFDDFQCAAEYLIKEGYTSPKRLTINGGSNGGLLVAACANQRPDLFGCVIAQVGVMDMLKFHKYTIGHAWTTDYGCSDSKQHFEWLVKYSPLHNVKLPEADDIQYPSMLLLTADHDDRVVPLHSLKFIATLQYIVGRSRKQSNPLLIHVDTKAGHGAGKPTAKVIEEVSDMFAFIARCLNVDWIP
Description: Inhibition of recombinant human Prolyl oligopeptidase expressed in Escherichia coli expression system using (Z)-Gly-Pro-p-nitroanilide as substrate preincubated with enzyme for 5 mins followed by substrate addition and measured for 30 mins by spectrophotometric analysis

Acetylcholinesterase [3] = target: T1, Acetylcholinesterase; experiment: Noncompetitive inhibition of human acetylcholinesterase assessed as affinity towards free enzyme using acetylthiocholine iodide as substrate measured by Ellman's method based Lineweaver-Burk plot analysis
Acetylcholinesterase [4] = target: T1, Acetylcholinesterase; experiment: Noncompetitive inhibition of human acetylcholinesterase assessed as decrease in apparent Vmax with unchanged Km using acetylthiocholine iodide as substrate by Lineweaver-Burk plot analysis
in vitro = settings: PAMPA, pH 7.4
Description: Permeability of the compound at pH 7.4 measured after 6 hrs by PAMPA method

[5] = Inhibition of HFIP-pretreated Tau (306 to 336) (unknown origin) self-aggregation at 25 uM measured at interval of 10 mins for overnight with 1 min shaking by thioflavin-T fluorescence method; settings: Homo sapiens
[6] = Antioxidant activity assessed as radical scavenging activity incubated for 20 mins by DPPH assay based UV spectrophotometer analysis; type: functional
[7] = Cricetulus griseus, CHO-K1, 24 h, read-out: IC50

| Compound | IC50 (Acetylcholinesterase [1]) [µM] | IC50 (CHO-K1; [7]) [µM] | EC50 [2] [µM] | IC50 (Prolyl endopeptidase) [µM] | Ki (Acetylcholinesterase [3]) [µM] | inhibition (Acetylcholinesterase [4]) | Papp at 6 h (in vitro) [×10⁻⁶ cm/s] | IC50 (CHO-K1; cho-k1) | inhibition [5] [%] | EC50 [6] [µM] |
| --- | --- | --- | --- | --- | --- | --- | --- | --- | --- | --- |
| COc1ccc2cc3[n+](cc2c1OCc1cccc(Br)c1)CCc1cc2c(cc1-3)OCO2 | 2.7 | 32 | 2200 | 59.6 |  |  |  |  |  |  |
| COc1ccc2cc3[n+](cc2c1OCc1ccc(C(F)(F)F)cc1)CCc1cc2c(cc1-3)OCO2.[Br-] | 1.3 | 21 | 5300 | 27.4 | 0.000456 | Active | 0.8 |  |  |  |
| COc1ccc2cc3[n+](cc2c1OCc1ccccc1)CCc1cc2c(cc1-3)OCO2.[Br-] | 5 | 55 | 1900 | 25.4 |  |  | 0.4 |  |  |  |
| CO/N=C(\C(=O)N[C@@H]1C(=O)N2C(C(=O)O)=C(COC(N)=O)CS[C@H]12)c1ccco1 [CEFUROXIME] |  |  |  |  |  |  | 0.3 |  |  |  |
| COc1ccc2cc3[n+](cc2c1OCc1cc(C)cc(C)c1)CCc1cc2c(cc1-3)OCO2 | 2.5 | 23 | 990 | 58.7 |  |  |  |  |  |  |
| COc1ccc2cc3[n+](cc2c1OCc1ccc(C#N)cc1)CCc1cc2c(cc1-3)OCO2 | 1.7 | 292 | > 6000 | 36.5 |  |  |  |  |  |  |
| COc1ccc2cc3[n+](cc2c1OCc1ccc(Br)cc1)CCc1cc2c(cc1-3)OCO2.[Br-] | 3.3 | 48 | > 6000 | 19.4 |  |  | 0.6 |  |  |  |
| COc1ccc2cc3[n+](cc2c1OCc1ccc([N+](=O)[O-])cc1)CCc1cc2c(cc1-3)OCO2.[Br-] | 0.99 |  | 5000 | 21.2 |  |  | 1.4 | Nd(Insoluble) |  |  |
| Nc1c2c(nc3ccccc13)CCCC2 [TACRINE] |  |  |  |  |  |  | 6 |  |  |  |
| CC(=O)N[C@@H](CS)C(=O)O [ACETYLCYSTEINE] |  |  | 27.9 |  |  |  |  |  |  |  |
| COc1ccc2cc3[n+](cc2c1OCc1ccc2ccccc2c1)CCc1cc2c(cc1-3)OCO2.[Br-] | 1.5 | 14 | > 6000 | 28.5 |  |  | 0.8 |  | 62 |  |
| COc1ccc2cc3[n+](cc2c1OCc1ccc(Cl)c(Cl)c1)CCc1cc2c(cc1-3)OCO2 | 1.22 | 9 | > 6000 | 52.7 |  |  |  |  |  |  |
| C[C@H]1c2cccc(O)c2C(=O)C2=C(O)[C@]3(O)C(=O)C(C(N)=O)=C(O)[C@@H](N(C)C)[C@@H]3[C@@H](O)[C@@H]21 |  |  |  |  |  |  |  |  | 39.6 |  |
| COc1ccc2cc3[n+](cc2c1OC)CCc1cc2c(cc1-3)OCO2.[Cl-] [BERBERINE CHLORIDE] |  | 336 | 5500 |  |  |  | 0.2 |  | 25 |  |
| COc1ccc2cc3[n+](cc2c1OCc1cccc(Cl)c1)CCc1cc2c(cc1-3)OCO2 | 1.9 | 30 | 5400 | 67 |  |  |  |  |  |  |
| COc1cccc(COc2c(OC)ccc3cc4[n+](cc23)CCc2cc3c(cc2-4)OCO3)c1 | 3.5 | 46 | 5300 | 40.4 |  |  |  |  |  |  |
| COc1ccc2cc3[n+](cc2c1OCc1ccc(SC)cc1)CCc1cc2c(cc1-3)OCO2 | 2.6 | 43 | > 6000 | 34 |  |  |  |  |  |  |
| COc1ccc2cc3[n+](cc2c1OCc1ccccc1Br)CCc1cc2c(cc1-3)OCO2 | 1.7 | 26 | > 6000 | 38.9 |  |  |  |  |  |  |
| COc1ccc2cc3[n+](cc2c1OCc1cccc([N+](=O)[O-])c1)CCc1cc2c(cc1-3)OCO2.[Br-] | 1.45 | 30 | 5600 | 24.7 |  |  | 1.2 |  |  |  |
| COc1ccc2cc3[n+](cc2c1OCc1cccc(C)c1)CCc1cc2c(cc1-3)OCO2 | 7.3 | 58 | 1200 | 79.1 |  |  |  |  |  |  |
| COc1ccc2cc3[n+](cc2c1OCc1ccc(C(C)C)cc1)CCc1cc2c(cc1-3)OCO2 | 4.2 | 17 | 1300 | 53.3 |  |  |  |  |  |  |
| COc1ccc2cc3[n+](cc2c1OCc1ccccc1C)CCc1cc2c(cc1-3)OCO2 | 10.4 | 55 | 1200 | 71.1 |  |  |  |  |  |  |
| COc1ccc2cc3[n+](cc2c1OCc1ccc(C)cc1)CCc1cc2c(cc1-3)OCO2.[Br-] | 75.8 | 43 | 1900 | 10.7 |  |  | 0.8 |  | 31.9 |  |
| COc1ccc2cc3[n+](cc2c1OC(C)c1ccccc1)CCc1cc2c(cc1-3)OCO2.[Br-] (configuration not stated) | 0.79 | 42 | 5600 | 29.5 |  |  | 0.4 |  | 38.3 |  |
| Cc1c(C)c2c(c(C)c1O)CCC(C)(C(=O)O)O2 (configuration not stated) [TROLOX] |  |  | 16.2 |  |  |  |  |  |  |  |
| COc1ccc2cc3[n+](cc2c1OCc1ccc(Cl)cc1)CCc1cc2c(cc1-3)OCO2 | 2.5 | 13 | 5200 | 39.4 |  |  |  |  |  |  |
| COc1ccc2cc3[n+](cc2c1O)CCc1cc2c(cc1-3)OCO2 [BERBERRUBINE CHLORIDE] |  |  |  |  |  |  |  |  |  | 87 |
| COC(=O)c1ccc(COc2c(OC)ccc3cc4[n+](cc23)CCc2cc3c(cc2-4)OCO3)cc1 | 2.6 | 50 | 5300 | 47.6 |  |  |  |  |  |  |
| COc1ccc(COc2c(OC)ccc3cc4[n+](cc23)CCc2cc3c(cc2-4)OCO3)cc1.[Br-] | 5.3 | 42 | > 6000 | 40.5 |  |  | 4.8 |  |  |  |
